Values after ≈ are worked out from the molar mass of the structure shown.
Key:
Assay in all cases: MIC, broth microdilution (NCCLS)
Type in all cases: cell-based
[1] = tested on: S. pneumoniae* GC1894 (Clinical); conditions: Streptococcus pneumoniae, Mueller-Hinton II broth, 18-22 hours at 35° C.
Description: (§1) Methods for in Vitro Antibacterial Evaluation
(§2) The Minimum Inhibitory Concentration (MIC)
(§3) Antimicrobial susceptibility testing. The in vitro activities of the antibiotics are determined by the broth microdilution method as recommended by the National Committee for Clinical Laboratory Standards (NCCLS) (1). Mueller-Hinton II broth (MHBII)(BBL Cockeysville, Md.) is the medium employed in the testing procedures. Microtiter plates containing serial dilutions of each antimicrobial agent are inoculated with each organism to yield the appropriate density (10^5 CFU/ml) in a 100 μl final volume. The plates are incubated for 18-22 hours at 35° C. in ambient air.
(§4) 1. NCCLS. 2000. Methods for Dilution Antimicrobial Susceptibility Tests for Bacteria That Grow Aerobically; Approved Standards: M7-A5, vol. 20. National Committe for Clinical Laboratory Standards, Wayne, Pa.

[2] = tested on: H. influenzae<> GC6896 (ATCC Control); conditions: Haemophilus influenzae, Mueller-Hinton II broth, 18-22 hours at 35° C.
Description: as §1, §2, §3, §4

[3] = tested on: S. aureus GC2216 (ATCC Control); conditions: Staphylococcus aureus, Mueller-Hinton II broth, 18-22 hours at 35° C.
Description: as §1, §2, §3, §4

[4] = tested on: E. faecalis GC2242 (Van-resistant); conditions: Enterococcus faecalis, Mueller-Hinton II broth, 18-22 hours at 35° C.
Description: as §1, §2, §3, §4

[5] = tested on: S. pneumoniae* GC4465 (Clinical); conditions: Streptococcus pneumoniae, Mueller-Hinton II broth, 18-22 hours at 35° C.
Description: as §1, §2, §3, §4

E. coli GC2270 (tet(M)) = conditions: Escherichia coli
Description: as §1, §2, §3, §4

[6] = tested on: S. pyogenes* GC4563 (Clinical); conditions: Streptococcus pyogenes, Mueller-Hinton II broth, 18-22 hours at 35° C.
Description: as §1, §2, §3, §4

[7] = tested on: S. aureus GC4536 (Smith MP -In Vivo); conditions: Staphylococcus aureus, Mueller-Hinton II broth, 18-22 hours at 35° C.
Description: as §1, §2, §3, §4

[8] = tested on: S. aureus GC1131 (Clinical); conditions: Staphylococcus aureus, Mueller-Hinton II broth, 18-22 hours at 35° C.
Description: as §1, §2, §3, §4

[9] = tested on: E. faecalis GC4555 (ATCC Control); conditions: Enterococcus faecalis, Mueller-Hinton II broth, 18-22 hours at 35° C.
Description: as §1, §2, §3, §4

E. coli GC1073 (tet(B)) = conditions: Escherichia coli
Description: as §1, §2, §3, §4

[10] = tested on: E. coli GC4560 (IMP mutant); conditions: Escherichia coli
Description: as §1, §2, §3, §4

[11] = tested on: E. coli GC2203 (ATCC Control); conditions: Escherichia coli, Mueller-Hinton II broth, 18-22 hours at 35° C.
Description: as §1, §2, §3, §4

[12] = tested on: E. coli GC4559 (parent GC4560); conditions: Escherichia coli, Mueller-Hinton II broth, 18-22 hours at 35° C.
Description: as §1, §2, §3, §4

[13] = tested on: M. catarrhalis* GC6907 (Clinical); conditions: Moraxella catarrhalis, Mueller-Hinton II broth, 18-22 hours at 35° C.
Description: as §1, §2, §3, §4

[14] = tested on: S. aureus GC1079 (tet(K)); conditions: Staphylococcus aureus, Mueller-Hinton II broth, 18-22 hours at 35° C.
Description: as §1, §2, §3, §4

[15] = tested on: S. aureus GC6466 (tet(M)); conditions: Staphylococcus aureus, Mueller-Hinton II broth, 18-22 hours at 35° C.
Description: as §1, §2, §3, §4

[16] = tested on: C. albicans GC3066 ATCC (Control); conditions: Candida albicans, Mueller-Hinton II broth, 18-22 hours at 35° C.
Description: as §1, §2, §3, §4

| Compound | MIC [1] [µg/mL] | MIC [2] [µg/mL] | MIC [3] [µg/mL] | MIC [4] [µg/mL] | MIC [5] [µg/mL] | MIC (E. coli GC2270 (tet(M))) [µg/mL] | MIC [6] [µg/mL] | MIC [7] [µg/mL] | MIC [8] [µg/mL] | MIC [9] [µg/mL] | MIC (E. coli GC1073 (tet(B))) [µg/mL] | MIC [10] [µg/mL] | MIC [11] [µg/mL] | MIC [12] [µg/mL] | MIC [13] [µg/mL] | MIC [14] [µg/mL] | MIC [15] [µg/mL] | MIC [16] [µg/mL] |
| --- | --- | --- | --- | --- | --- | --- | --- | --- | --- | --- | --- | --- | --- | --- | --- | --- | --- | --- |
| CN(C)c1cc2nc(C=C(c3ccccc3)c3ccccc3)oc2c2c1C[C@H]1C[C@H]3[C@H](N(C)C)C(O)=C(C(N)=O)C(=O)[C@@]3(O)C(O)=C1C2=O [Example 1, (6aR,7aS,8S,11aS)-5,8-bis(dimethylamino)-2-(2,2-diphenylvinyl)-9,11a,12-trihydroxy-11,13-dioxo-6,6a,7,7a,8,11,11a,13-octahydrotetraceno[2,1-d][1,3]oxazole-10-carboxamide] | 8 (≈ 12.1 µM) | > 64 | 16 (≈ 24.2 µM) | 16 (≈ 24.2 µM) | 16 (≈ 24.2 µM) | > 64 | 8 (≈ 12.1 µM) | 16 (≈ 24.2 µM) | 16 (≈ 24.2 µM) | 32 (≈ 48.4 µM) | > 64 | 32 (≈ 48.4 µM) | > 64 | > 64 | > 64 | 16 (≈ 24.2 µM) | 32 (≈ 48.4 µM) | > 64 |
| CC(C)=Cc1nc2ccc3cc4c(c(O)c3c2o1)C(=O)[C@]1(O)C(=O)C(C(N)=O)=C(O)[C@@H](N(C)C)[C@@H]1C4 [Example 2, (7aS,8S,11aS)-8-(dimethylamino)-9,11a,13-trihydroxy-2-(2-methyl-1-propenyl)-11,12-dioxo-7,7a,8,11,11a,12-hexahydronaphthaceno[2,1-d][1,3]oxazole-10-carboxamide] | – | – | 8 (≈ 16.3 µM) | 8 (≈ 16.3 µM) | 8 (≈ 16.3 µM) | > 64 | 8 (≈ 16.3 µM) | 8 (≈ 16.3 µM) | 8 (≈ 16.3 µM) | 8 (≈ 16.3 µM) | > 64 | 8 (≈ 16.3 µM) | > 64 | > 64 | – | 8 (≈ 16.3 µM) | 8 (≈ 16.3 µM) | > 64 |
| CN(C)c1ccc(-c2nc3ccc4cc5c(c(O)c4c3o2)C(=O)[C@]2(O)C(=O)C(C(N)=O)=C(O)[C@@H](N(C)C)[C@@H]2C5)cc1 [Example 3, (7aS,8S,11aS)-8-(dimethylamino)-2-[4-(dimethylamino)phenyl]-9,11a,13-trihydroxy-11,12-dioxo-7,7a,8,11,11a,12-hexahydronaphthaceno[2,1-d][1,3]oxazole-10-carboxamide] | – | – | 2 (≈ 3.59 µM) | 2 (≈ 3.59 µM) | 2 (≈ 3.59 µM) | > 64 | 8 (≈ 14.4 µM) | 2 (≈ 3.59 µM) | 2 (≈ 3.59 µM) | 2 (≈ 3.59 µM) | > 64 | 16 (≈ 28.7 µM) | > 64 | > 64 | – | 1 (≈ 1.8 µM) | 2 (≈ 3.59 µM) | > 64 |
| CN(C)c1cc2nc(C(C)(C)C)oc2c2c1C[C@H]1C[C@H]3[C@H](N(C)C)C(O)=C(C(N)=O)C(=O)[C@@]3(O)C(O)=C1C2=O [Example 4, (6aR,7aS,8S,11aS)-2-tert-butyl-5,8-bis(dimethylamino)-9,11a,12-trihydroxy-11,13-dioxo-6,6a,7,7a,8,11,11a,13-octahydrotetraceno[2,1-d][1,3]oxazole-10-carboxamide] | 32 (≈ 59.4 µM) | > 64 | 32 (≈ 59.4 µM) | 32 (≈ 59.4 µM) | 16 (≈ 29.7 µM) | > 64 | 16 (≈ 29.7 µM) | 32 (≈ 59.4 µM) | 16 (≈ 29.7 µM) | 32 (≈ 59.4 µM) | > 64 | 16 (≈ 29.7 µM) | > 64 | > 64 | 16 (≈ 29.7 µM) | 16 (≈ 29.7 µM) | 32 (≈ 59.4 µM) | > 64 |
| Cc1ccc(-c2nc3cc(N(C)C)c4c(c3o2)C(=O)C2=C(O)[C@]3(O)C(=O)C(C(N)=O)=C(O)[C@@H](N(C)C)[C@@H]3C[C@@H]2C4)cc1 [Example 5, (6aR,7aS,8S,11aS)-5,8-bis(dimethylamino)-9,11a,12-trihydroxy-2-(4-methylphenyl)-11,13-dioxo-6,6a,7,7a,8,11,11a,13-octahydrotetraceno[2,1-d][1,3]oxazole-10-carboxamide] | 8 (≈ 14 µM) | > 64 | 4 (≈ 6.99 µM) | 4 (≈ 6.99 µM) | 16 (≈ 27.9 µM) | > 64 | 16 (≈ 27.9 µM) | 4 (≈ 6.99 µM) | 4 (≈ 6.99 µM) | 4 (≈ 6.99 µM) | > 64 | 4 (≈ 6.99 µM) | > 64 | > 64 | 16 (≈ 27.9 µM) | 4 (≈ 6.99 µM) | 4 (≈ 6.99 µM) | > 64 |
| CN(C)c1cc2nc(-c3ccc(C#N)cc3)oc2c2c1C[C@H]1C[C@H]3[C@H](N(C)C)C(O)=C(C(N)=O)C(=O)[C@@]3(O)C(O)=C1C2=O [Example 7, (6aR,7aS,8S,11aS)-2-(4-cyanophenyl)-5,8-bis(dimethylamino)-9,11a,12-trihydroxy-11,13-dioxo-6,6a,7,7a,8,11,11a,13-octahydrotetraceno[2,1-d][1,3]oxazole-10-carboxamide] | 16 (≈ 27.4 µM) | 64 (≈ 110 µM) | 8 (≈ 13.7 µM) | 8 (≈ 13.7 µM) | 8 (≈ 13.7 µM) | > 64 | 8 (≈ 13.7 µM) | 8 (≈ 13.7 µM) | 8 (≈ 13.7 µM) | 8 (≈ 13.7 µM) | > 64 | 8 (≈ 13.7 µM) | > 64 | > 64 | 4 (≈ 6.85 µM) | 8 (≈ 13.7 µM) | 8 (≈ 13.7 µM) | > 64 |
| CN(C)c1cc2nc(-c3cc(C(C)(C)C)ccc3O)oc2c2c1C[C@H]1C[C@H]3[C@H](N(C)C)C(O)=C(C(N)=O)C(=O)[C@@]3(O)C(O)=C1C2=O [Example 10, (6aR,7aS,8S,11aS)-2-(5-tert-butyl-2-hydroxyphenyl)-5,8-bis(dimethylamino)-9,11a,12-trihydroxy-11,13-dioxo-6,6a,7,7a,8,11,11a,13-octahydrotetraceno[2,1-d][1,3]oxazole-10-carboxamide] | 8 (≈ 12.7 µM) | > 64 | 16 (≈ 25.4 µM) | 8 (≈ 12.7 µM) | 16 (≈ 25.4 µM) | > 64 | 16 (≈ 25.4 µM) | 16 (≈ 25.4 µM) | 8 (≈ 12.7 µM) | 16 (≈ 25.4 µM) | > 64 | 32 (≈ 50.7 µM) | > 64 | > 64 | > 64 | 16 (≈ 25.4 µM) | 16 (≈ 25.4 µM) | > 64 |
| CN(C)c1cc2nc(-c3ccc(O)cc3O)oc2c2c1C[C@H]1C[C@H]3[C@H](N(C)C)C(O)=C(C(N)=O)C(=O)[C@@]3(O)C(O)=C1C2=O [Example 12, (6aR,7aS,8S,11aS)-2-(2,4-dihydroxyphenyl)-5,8-bis(dimethylamino)-9,11a,12-trihydroxy-11,13-dioxo-6,6a,7,7a,8,11,11a,13-octahydrotetraceno[2,1-d][1,3]oxazole-10-carboxamide] | 8 (≈ 13.5 µM) | 16 (≈ 27.1 µM) | 4 (≈ 6.77 µM) | 8 (≈ 13.5 µM) | 8 (≈ 13.5 µM) | > 64 | 4 (≈ 6.77 µM) | 8 (≈ 13.5 µM) | 4 (≈ 6.77 µM) | 8 (≈ 13.5 µM) | > 64 | 4 (≈ 6.77 µM) | 32 (≈ 54.2 µM) | > 64 | 4 (≈ 6.77 µM) | 8 (≈ 13.5 µM) | 8 (≈ 13.5 µM) | > 64 |
| COc1ccc(-c2nc3cc(N(C)C)c4c(c3o2)C(=O)C2=C(O)[C@]3(O)C(=O)C(C(N)=O)=C(O)[C@@H](N(C)C)[C@@H]3C[C@@H]2C4)cc1F [Example 13, (6aR,7aS,8S,11aS)-5,8-bis(dimethylamino)-2-(3-fluoro-4-methoxyphenyl)-9,11a,12-trihydroxy-11,13-dioxo-6,6a,7,7a,8,11,11a,13-octahydrotetraceno[2,1-d][1,3]oxazole-10-carboxamide] | 16 (≈ 26.4 µM) | > 64 | 4 (≈ 6.59 µM) | 8 (≈ 13.2 µM) | 32 (≈ 52.8 µM) | > 64 | 16 (≈ 26.4 µM) | 8 (≈ 13.2 µM) | 4 (≈ 6.59 µM) | 8 (≈ 13.2 µM) | > 64 | 4 (≈ 6.59 µM) | > 64 | > 64 | 16 (≈ 26.4 µM) | 4 (≈ 6.59 µM) | 4 (≈ 6.59 µM) | > 64 |

From US20080064667A1, “OXAZOLE DERIVATIVES OF TETRACYCLINES” (Wyeth, priority 2003, published 2008)
